ChEMBL document CHEMBL3044830, “Synthesis, characterization, antibacterial, antifungal, and immunomodulating activities of gatifloxacin derivatives” (Med Chem Res, 2010)

Legend:
[1] = system: T-cell; experiment: Anti-inflammatory activity in Homo sapiens (human) T lymphocytes assessed as inhibition of PHA-induced [3H] thymidine uptake at 12.5 ug/ml incubated for 72 hr prior to [3H]thymidine addition measured after 18 hr by liquid scintillation method; format: functional
[2] = system: Shigella flexneri; experiment: Antibacterial activity against Shigella flexneri assessed as concentration required to obtain a zone of inhibition of 10 mm after 18 to 24 hr by disk diffusion method; format: functional
[3] = system: Blood; experiment: Antioxidant activity in Homo sapiens (human) whole blood assessed as inhibition of ROS production at 50 ug/ml after 30 min by luminol-enhanced chemiluminescence assay; format: functional; conditions: 0.5 h
[4] = system: Candida albicans; experiment: Antifungal activity against Candida albicans assessed as zone of inhibition at 5 to 40 ug/ml after 7 days by disk diffusion method relative to gatifloxacin; format: functional
[5] = system: Blood; experiment: Antioxidant activity in Homo sapiens (human) whole blood assessed as inhibition of ROS production after 30 min by luminol-enhanced chemiluminescence assay; format: functional, tissue-based; conditions: 0.5 h
[6] = system: Saccharomyces cerevisiae; experiment: Antifungal activity against Saccharomyces cerevisiae assessed as zone of inhibition at 5 to 40 ug/ml after 7 days by disk diffusion method relative to gatifloxacin; format: functional
[7] = system: Staphylococcus aureus; experiment: Antibacterial activity against methicillin-resistant Staphylococcus aureus assessed as zone of inhibition at 5 to 40 ug/ml after 18 to 24 hr by disk diffusion method relative to gatifloxacin; format: functional
[8] = system: Pseudomonas aeruginosa; experiment: Antibacterial activity against Pseudomonas aeruginosa assessed as zone of inhibition at 5 to 40 ug/ml after 18 to 24 hr by disk diffusion method relative to gatifloxacin; format: functional
[9] = system: Fusarium solani; experiment: Antifungal activity against Fusarium solani assessed as concentration required to obtain a zone of inhibition of 40 mm after 7 days by disk diffusion method; format: functional
[10] = system: Proteus mirabilis; experiment: Antibacterial activity against Proteus mirabilis assessed as concentration required to obtain a zone of inhibition of 10 mm after 18 to 24 hr by disc diffusion method; format: functional
[11] = Antibacterial activity against Hofmanni bacterium assessed as concentration required to obtain a zone of inhibition of 10 mm after 18 to 24 hr by disc diffusion method
[12] = system: Bacillus subtilis; experiment: Antibacterial activity against Bacillus subtilis assessed as concentration required to obtain a zone of inhibition of 20 mm after 18 to 24 hr by disk diffusion method; format: functional
[13] = system: Proteus mirabilis; experiment: Antibacterial activity against Proteus mirabilis assessed as zone of inhibition at 5 to 40 ug/ml after 18 to 24 hr by disc diffusion method relative to gatifloxacin; format: functional
[14] = Antibacterial activity against Hofmanni bacterium assessed as zone of inhibition after 18 to 24 hr by disc diffusion method relative to gatifloxacin
[15] = Antibacterial activity against Hofmanni bacterium assessed as concentration required to obtain a zone of inhibition of 5 mm after 18 to 24 hr by disc diffusion method
[16] = system: Shigella sp.; experiment: Antibacterial activity against Shigella typhi assessed as concentration required to obtain a zone of inhibition of 5 mm after 18 to 24 hr by disc diffusion method; format: functional
[17] = system: Citrobacter; experiment: Antibacterial activity against Citrobacter assessed as zone of inhibition at 5 to 40 ug/ml after 18 to 24 hr by disk diffusion method relative to gatifloxacin; format: functional
[18] = system: Shigella flexneri; experiment: Antibacterial activity against Shigella flexneri assessed as concentration required to obtain a zone of inhibition of 5 mm after 18 to 24 hr by disk diffusion method; format: functional
[19] = system: Escherichia coli; experiment: Antibacterial activity against Escherichia coli assessed as zone of inhibition at 5 to 40 ug/ml after 18 to 24 hr by disk diffusion method relative to gatifloxacin; format: functional
[20] = system: Candida albicans; experiment: Antifungal activity against Candida albicans assessed as concentration required to obtain a zone of inhibition of 20 mm after 7 days by disk diffusion method; format: functional
[21] = system: Trichophyton rubrum; experiment: Antifungal activity against Trichophyton rubrum assessed as concentration required to obtain a zone of inhibition of 40 mm after 7 days by disk diffusion method; format: functional
[22] = system: Staphylococcus aureus; experiment: Antibacterial activity against methicillin-resistant Staphylococcus aureus assessed as concentration required to obtain a zone of inhibition of 5 mm after 18 to 24 hr by disk diffusion method; format: functional
[23] = system: Bacillus subtilis; experiment: Antibacterial activity against Bacillus subtilis assessed as concentration required to obtain a zone of inhibition of 10 mm after 18 to 24 hr by disk diffusion method; format: functional
[24] = system: Blood; experiment: Antioxidant activity in Homo sapiens (human) whole blood assessed as inhibition of ROS production at 12.5 ug/ml after 30 min by luminol-enhanced chemiluminescence assay; format: functional; conditions: 0.5 h
[25] = system: Escherichia coli; experiment: Antibacterial activity against Escherichia coli assessed as concentration required to obtain a zone of inhibition of 5 mm after 18 to 24 hr by disk diffusion method; format: functional
[26] = system: Bacillus subtilis; experiment: Antibacterial activity against Bacillus subtilis assessed as zone of inhibition at 5 to 40 ug/ml after 18 to 24 hr by disk diffusion method relative to gatifloxacin; format: functional
[27] = system: Klebsiella pneumoniae; experiment: Antibacterial activity against Klebsiella pneumoniae assessed as concentration required to obtain a zone of inhibition of 20 mm after 18 to 24 hr by disk diffusion method; format: functional
[28] = system: Pseudomonas aeruginosa; experiment: Antibacterial activity against Pseudomonas aeruginosa assessed as concentration required to obtain a zone of inhibition of 20 mm after 18 to 24 hr by disk diffusion method; format: functional
[29] = system: T-cell; experiment: Anti-inflammatory activity in Homo sapiens (human) T lymphocytes assessed as inhibition of PHA-induced [3H] thymidine uptake at 50 ug/ml incubated for 72 hr prior to [3H]thymidine addition measured after 18 hr by liquid scintillation method; format: functional
[30] = system: Fusarium solani; experiment: Antifungal activity against Fusarium solani assessed as zone of inhibition at 5 to 40 ug/ml after 7 days by disk diffusion method relative to gatifloxacin; format: functional
[31] = system: Escherichia coli; experiment: Antibacterial activity against Escherichia coli assessed as concentration required to obtain a zone of inhibition of 20 mm after 18 to 24 hr by disk diffusion method; format: functional
[32] = system: Pseudomonas aeruginosa; experiment: Antibacterial activity against Pseudomonas aeruginosa assessed as concentration required to obtain a zone of inhibition of 5 mm after 18 to 24 hr by disk diffusion method; format: functional
[33] = system: Citrobacter; experiment: Antibacterial activity against Citrobacter assessed as concentration required to obtain a zone of inhibition of 10 mm after 18 to 24 hr by disk diffusion method; format: functional
[34] = system: Klebsiella pneumoniae; experiment: Antibacterial activity against Klebsiella pneumoniae assessed as zone of inhibition at 5 to 40 ug/ml after 18 to 24 hr by disk diffusion method relative to gatifloxacin; format: functional
[35] = system: Klebsiella pneumoniae; experiment: Antibacterial activity against Klebsiella pneumoniae assessed as concentration required to obtain a zone of inhibition of 5 mm after 18 to 24 hr by disk diffusion method; format: functional
[36] = system: T-cell; experiment: Anti-inflammatory activity in Homo sapiens (human) T lymphocytes assessed as inhibition of PHA-induced [3H] thymidine uptake at 3.12 ug/ml incubated for 72 hr prior to [3H]thymidine addition measured after 18 hr by liquid scintillation method; format: functional
[37] = system: Candida albicans; experiment: Antifungal activity against Candida albicans assessed as concentration required to obtain a zone of inhibition of 40 mm after 7 days by disk diffusion method; format: functional

Row | Structure (SMILES) | inhibition at 12.5 µg/mL [1] | Activity [2] | inhibition at 50 µg/mL [3] | inhibition zone (IZ) [4] | IC50 [5] | inhibition zone (IZ) [6] | inhibition zone (IZ) [7] | inhibition zone (IZ) [8] | Activity [9] | Activity [10] | Activity [11] | Activity [12] | inhibition zone (IZ) [13] | inhibition zone (IZ) [14] | Activity [15] | Activity [16] | inhibition zone (IZ) [17] | Activity [18] | inhibition zone (IZ) [19] | Activity [20] | further results
1 | CCCCCCCC(=O)N1CCN(c2c(F)cc3c(=O)c(C(=O)O)cn(C4CC4)c3c2OC)CC1C.O (stereo unspecified) | -41.5% | 15 µg/mL | 89.2% | 218% | < 12.5 µg/mL | 0% | 76.7% | 78.57% | 19 µg/mL | 12 µg/mL | 11 µg/mL | 13 µg/mL | 92% | 88% | 7 µg/mL | 8 µg/mL | 51.5% | 12 µg/mL | 90.78% | 16 µg/mL | Activity [21]: 17 µg/mL; Activity [22]: 7 µg/mL; Activity [23]: 11 µg/mL; inhibition at 12.5 µg/mL [24]: 74.1%; Activity [25]: 8 µg/mL; inhibition zone (IZ) [26]: 80.2%; Activity [27]: 18 µg/mL; Activity [28]: 11 µg/mL; inhibition at 50 µg/mL [29]: -6.9%; inhibition zone (IZ) [30]: 110%; Activity [31]: 14 µg/mL; Activity [32]: 8 µg/mL; Activity [33]: 10 µg/mL; inhibition zone (IZ) [34]: 113%; Activity [35]: 13 µg/mL; inhibition at 3.12 µg/mL [36]: -59.5%; Activity [37]: 21 µg/mL
2 | COc1c(N2CCN(C(=O)c3ccccc3)C(C)C2)c(F)cc2c(=O)c(C(=O)O)cn(C3CC3)c12.O (stereo unspecified) | -41.5% | 13 µg/mL | 11.1% | 141% | > 100 µg/mL | 0% | 87.4% | 117.9% | 19 µg/mL | 11 µg/mL | 12 µg/mL | 18 µg/mL | 78.8% | 86% | 6 µg/mL | 8 µg/mL | 47.6% | 11 µg/mL | 117.3% | 10 µg/mL | Activity [21]: 27 µg/mL; Activity [22]: 9 µg/mL; Activity [23]: 15 µg/mL; inhibition at 12.5 µg/mL [24]: -5.1%; Activity [25]: 8 µg/mL; inhibition zone (IZ) [26]: 104%; Activity [27]: 21 µg/mL; Activity [28]: 18 µg/mL; inhibition at 50 µg/mL [29]: -6.9%; inhibition zone (IZ) [30]: 120%; Activity [31]: 19 µg/mL; Activity [32]: 10 µg/mL; Activity [33]: 10 µg/mL; inhibition zone (IZ) [34]: 99.8%; Activity [35]: 8 µg/mL; inhibition at 3.12 µg/mL [36]: -59.5%; Activity [37]: 14 µg/mL
3 | COc1c(N2CCN(C(C)=O)C(C)C2)c(F)cc2c(=O)c(C(=O)O)cn(C3CC3)c12.O (stereo unspecified) | -35.7% | 22 µg/mL | -17.4% | 206% | > 100 µg/mL | 0% | 124% | 150.1% | 15 µg/mL | 10 µg/mL | 12 µg/mL | 17 µg/mL | 76.6% | 99% | 8 µg/mL | 9 µg/mL | 98.9% | 19 µg/mL | 134.8% | 16 µg/mL | Activity [21]: 34 µg/mL; Activity [22]: 14 µg/mL; Activity [23]: 15 µg/mL; inhibition at 12.5 µg/mL [24]: -14.3%; Activity [25]: 10 µg/mL; inhibition zone (IZ) [26]: 100%; Activity [27]: 25 µg/mL; Activity [28]: 24 µg/mL; inhibition at 50 µg/mL [29]: -52.3%; inhibition zone (IZ) [30]: 93.3%; Activity [31]: 22 µg/mL; Activity [32]: 11 µg/mL; Activity [33]: 21 µg/mL; inhibition zone (IZ) [34]: 158%; Activity [35]: 16 µg/mL; inhibition at 3.12 µg/mL [36]: -23.4%; Activity [37]: 19 µg/mL
